Experimental data from US10023592B2, “Bromodomain inhibitors” (Celgene Quanticel Research, Inc., priority 2013, dated 2018).
Read-outs that look alike come from different tables or passages of the source.

Tests used:
[1] = system: HL-60, human proleukemia cells; test: Cell-MTS proliferation assay, HL-60; type: cell-based; settings: Homo sapiens, HL-60; Cell-MTS, 168 hr; class symbols A/B/C
Method in brief: (§1)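 Cells were seeded per 96-well at densities giving ~90% confluence by day 7 (Raji 15,000, HL-60 5,000, NCI-H460 3,000) and dosed 24 hr later with an 11-point dilution, 100 μM to 2.0 nM final. Seven-day MTS colorimetric read at OD490; IC50 from background-subtracted, DMSO-normalised values.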

[2] = system: Raji, human Burkitts lymphoma cells; test: Cell-MTS proliferation assay, Raji; type: cell-based; settings: Homo sapiens, Raji; Cell-MTS, 168 hr; class symbols A/B/C
Method in brief: as §1

[3] = system: NCI-H460, human non-small cell lung cancer cells; test: Cell-MTS proliferation assay, NCI-H460; type: cell-based; settings: Homo sapiens, NCI-H460; Cell-MTS, 168 hr; class symbols A/B/C
Experimental: The Cell-MTS assay is a 7-day plate-based colorimetric assay which quantifies the amount of newly generated NADH in the presence or absence of test compound. The NADH level is used for the quantification of cancer cell proliferation.
Established cancer cell lines with a variety of driving mutations were obtained from American Type Culture Collection (ATCC) and routinely passaged according to ATCC protocols. For routine assay, these cells were seeded at densities which enabled ˜90% confluence after 7 days of culture. Raji, human Burkitts lymphoma cells, (cMYC) were seeded at 15,000 cells per 96-well. HL-60, human proleukemia cells, (NRAS, p16, p53, c-Myc amplified) were seeded at 5,000 cells per 96-well. NCI-H460, human non-small cell lung cancer cells, (KRAS, PIK3CA, STLK11, p16) were seeded at 3,000 cells per 96-well. 24 hr after plating, cells received an 11-point dilution of test compound with final concentration ranges from 100 μM to 2.0 nM. […] At the end of this incubation period, 80 μL of media is removed and 20 μL of CellTiter 96® AQueous Non-Radioactive Cell Proliferation Assay soln (Promega) was added. The cells were incubated until the OD490 was >0.6. IC50 values were calculated using the IDBS XLfit software package and include background subtracted OD490 values and normalization to DMSO controls. Cellular proliferation IC50 values were uploaded and archived using the Chem Biography Platform.

[4] = biological target: BRD4(BD1) (Homo sapiens (Human), UniProt O60885); test: In vitro enzyme inhibition assay (BRD4 AlphaScreen); type: binding
Method in brief: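 AlphaScreen proximity readout, using streptavidin donor and Ni-chelate acceptor beads at 5 μg/mL final, monitors biotin-H4 tetraacetylated peptide interaction with purified His-tagged BRD4.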

| Compound | IC50 [1] [nM] | IC50 [2] [nM] | IC50 [3] [nM] | IC50 ([4]; class symbols A/B/C) [nM] | IC50 [4] [nM] |
| --- | --- | --- | --- | --- | --- |
| CCS(=O)(=O)Nc1ccc(Oc2ccc(F)cc2F)c(-c2cn(C)c(=O)c3ccccc23)c1 [Example 93, N-[4-(2,4-difluorophenoxy)-3-(2-methyl-1-oxoisoquinolin-4-yl)phenyl]ethanesulfonamide] | < 500 | < 500 | > 5000 | < 500 |  |
| Cn1cc(-c2cc(NS(C)(=O)=O)ccc2Oc2ccc(F)cc2F)ccc1=O [Example 100, N-[4-(2,4-difluorophenoxy)-3-(1-methyl-6-oxopyridin-3-yl)phenyl]methanesulfonamide] | < 500 | < 500 | > 5000 |  | < 500 |
| Cc1cc(=O)n(C)cc1-c1cc(NS(C)(=O)=O)ccc1Oc1ccc(F)cc1F [Example 101, N-[4-(2,4-difluorophenoxy)-3-(1,4-dimethyl-6-oxopyridin-3-yl)phenyl]methanesulfonamide] | < 500 | < 500 | > 5000 | < 500 |  |
| Cc1cc(-c2cc(NS(C)(=O)=O)ccc2Oc2ccc(F)cc2F)cn(C)c1=O [Example 102, N-[4-(2,4-difluorophenoxy)-3-(1,5-dimethyl-6-oxopyridin-3-yl)phenyl]methanesulfonamide] | < 500 | < 500 | > 5000 | < 500 |  |
| COc1ccc(-c2cc(N)c(=O)n(C)c2)cc1NS(C)(=O)=O [Example 109, N-[5-(5-amino-1-methyl-6-oxopyridin-3-yl)-2-methoxyphenyl]methanesulfonamide] | > 5000 | > 5000 | > 5000 | 500 to 5000 |  |
| COc1ccc(-c2cc(N(C)C)c(=O)n(C)c2)cc1NS(C)(=O)=O [Example 113, N-[5-[5-(dimethylamino)-1-methyl-6-oxopyridin-3-yl]-2-methoxyphenyl]methanesulfonamide] | < 500 | 500 to 5000 | 500 to 5000 | < 500 |  |
| CCS(=O)(=O)Nc1ccc(Oc2ccc(F)cc2F)c(-c2cc(N)c(=O)n(C)c2)c1 [Example 115, N-[3-(5-amino-1-methyl-6-oxopyridin-3-yl)-4-(2,4-difluorophenoxy)phenyl]ethanesulfonamide] | < 500 | < 500 | > 5000 | < 500 |  |
| CCS(=O)(=O)Nc1ccc(Oc2ccc(F)cc2F)c(-c2cc(F)c(=O)n(C)c2)c1 [Example 122, N-[4-(2,4-difluorophenoxy)-3-(5-fluoro-1-methyl-6-oxopyridin-3-yl)phenyl]ethanesulfonamide] | < 500 | < 500 | > 5000 | < 500 |  |
| CCS(=O)(=O)Nc1cccc(-c2cn(C)c(=O)c3ccncc23)c1 [Example 123, N-[3-(2-methyl-1-oxo-2,6-naphthyridin-4-yl)phenyl]ethanesulfonamide] | 500 to 5000 | 500 to 5000 | > 5000 | 500 to 5000 |  |
| CCS(=O)(=O)Nc1ccc(Oc2ccc(F)cc2F)c(-c2cn(C)c(=O)c3ccncc23)c1 [Example 127, N-[4-(2,4-difluorophenoxy)-3-(2-methyl-1-oxo-2,6-naphthyridin-4-yl)phenyl]ethanesulfonamide] | < 500 | < 500 | > 5000 | < 500 |  |
| CCS(=O)(=O)Nc1ccc(Oc2ccc(F)cc2F)c(-c2cn(C)c(=O)c3cncn23)c1 [Example 129, N-[4-(2,4-difluorophenoxy)-3-(7-methyl-8-oxoimidazo[1,5-a]pyrazin-5-yl)phenyl]ethanesulfonamide] | < 500 | < 500 | > 5000 | < 500 |  |
| COc1ccc(-c2cn(C)c(=O)c3cncn23)cc1NS(C)(=O)=O [Example 132, N-[2-methoxy-5-(7-methyl-8-oxoimidazo[1,5-a]pyrazin-5-yl)phenyl]methanesulfonamide] | 500 to 5000 | > 5000 | 500 to 5000 | 500 to 5000 |  |
| CCS(=O)(=O)Nc1ccc(Oc2ccc(F)cc2F)c(-c2cc(Cl)c(=O)n(C)c2)c1 [Example 134, N-[3-(5-chloro-1-methyl-6-oxopyridin-3-yl)-4-(2,4-difluorophenoxy)phenyl]ethanesulfonamide] | < 500 | < 500 | 500 to 5000 | < 500 |  |

Now from value to compound, other results behind:

| IC50 [1] [nM] | IC50 [2] [nM] | IC50 [3] [nM] | IC50 ([4]; class symbols A/B/C) [nM] | Compound | IC50 [4] [nM] |
| --- | --- | --- | --- | --- | --- |
| < 500 | < 500 | > 5000 | < 500 | Cn1cc(-c2cc(S(C)(=O)=O)ccc2OCC2CC2)c2ccccc2c1=O [Example 89, 4-[2-(cyclopropylmethoxy)-5-methylsulfonylphenyl]-2-methylisoquinolin-1-one] |  |
| < 500 | < 500 | > 5000 | < 500 | Cn1cc(-c2cc(S(C)(=O)=O)ccc2OCC2CC2)c2ccc(F)cc2c1=O [Example 91, 4-[2-(cyclopropylmethoxy)-5-methylsulfonylphenyl]-7-fluoro-2-methyl-isoquinolin-1-one] |  |
| < 500 | < 500 | > 5000 | < 500 | Cn1cc(-c2cc(S(C)(=O)=O)ccc2Oc2ccc(F)cc2F)c2ccccc2c1=O [Example 92, 4-[2-(2,4-difluorophenoxy)-5-methylsulfonylphenyl]-2-methylisoquinolin-1-one] |  |
| 500 to 5000 | 500 to 5000 | > 5000 | 500 to 5000 | Cn1cc(-c2cc(S(C)(=O)=O)ccc2OCC2CC2)ccc1=O [Example 98, 5-[2-(cyclopropylmethoxy)-5-methylsulfonylphenyl]-1-methylpyridin-2-one] |  |
| < 500 | < 500 | > 5000 | < 500 | CCS(=O)(=O)Nc1ccc(Oc2ccc(F)cc2F)c(-c2ccc(=O)n(C)c2)c1 [Example 99, N-[4-(2,4-difluorophenoxy)-3-(1-methyl-6-oxopyridin-3-yl)phenyl]ethanesulfonamide] |  |
| 500 to 5000 | > 5000 | > 5000 | < 500 | CNc1cc(-c2ccc(OC)c(NS(C)(=O)=O)c2)cn(C)c1=O [Example 110, N-[2-methoxy-5-[1-methyl-5-(methylamino)-6-oxopyridin-3-yl]phenyl]methanesulfonamide] |  |
| 500 to 5000 | > 5000 | > 5000 | < 500 | Cn1cc(-c2cc(S(C)(=O)=O)ccc2OCC2CC2)cc(N)c1=O [Example 116, 3-amino-5-[2-(cyclopropylmethoxy)-5-methylsulfonylphenyl]-1-methylpyridin-2-one] |  |
| 500 to 5000 | 500 to 5000 | > 5000 | < 500 | CCOc1ccc(S(N)(=O)=O)cc1-c1ccc(=O)n(C)c1 [Example 117, 4-ethoxy-3-(1-methyl-6-oxopyridin-3-yl)benzenesulfonamide] |  |
| < 500 | < 500 | > 5000 | < 500 | Cn1cc(-c2cc(S(N)(=O)=O)ccc2Oc2ccc(F)cc2F)ccc1=O [Example 118, 4-(2,4-difluorophenoxy)-3-(1-methyl-6-oxopyridin-3-yl)benzenesulfonamide] |  |
| 500 to 5000 | 500 to 5000 | > 5000 | 500 to 5000 | Cn1cc(-c2cc(S(C)(=O)=O)ccc2OCC2CC2)cc(F)c1=O [Example 119, 5-[2-(cyclopropylmethoxy)-5-methylsulfonylphenyl]-3-fluoro-1-methylpyridin-2-one] |  |
| 500 to 5000 | > 5000 | > 5000 | 500 to 5000 | Cn1cc(-c2cc(S(C)(=O)=O)ccc2Oc2ccc(F)cc2F)cc(F)c1=O [Example 120, 5-[2-(2,4-difluorophenoxy)-5-methylsulfonylphenyl]-3-fluoro-1-methylpyridin-2-one] |  |
| < 500 | 500 to 5000 | > 5000 | < 500 | CCS(=O)(=O)c1ccc(Oc2ccc(F)cc2F)c(-c2cc(F)c(=O)n(C)c2)c1 [Example 121, 5-[2-(2,4-difluorophenoxy)-5-ethylsulfonylphenyl]-3-fluoro-1-methylpyridin-2-one] |  |
| < 500 | < 500 | > 5000 | < 500 | Cc1cnn(-c2ccc3c(=O)n(C)cc(-c4cc(S(C)(=O)=O)ccc4OCC4CC4)c3c2)c1 [Example 128, 4-[2-(cyclopropylmethoxy)-5-methylsulfonylphenyl]-2-methyl-6-(4-methylpyrazol-1-yl)isoquinolin-1-one] |  |
| < 500 | 500 to 5000 | > 5000 | < 500 | Cn1cc(-c2cc(S(C)(=O)=O)ccc2OCC2CC2)n2cncc2c1=O [Example 130, 5-[2-(cyclopropylmethoxy)-5-methylsulfonylphenyl]-7-methylimidazo[1,5-a]pyrazin-8-one] |  |
